From patent publication US6737383B1, “Herbicidal oxadiazolidines” (priority 1999, dated 2004)

Columns and labels:
corn = experiment: Test B pre/postemergence corn; type: in vivo, Zea mays
Outline: (§1)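 Herbicidal effect was estimated by eye on a ten-point control scale after plants spent twelve to sixteen days in a greenhouse following soil or foliar treatment. Foliar sprays targeted plants at one to four leaves; all doses were formulated in a non-phytotoxic solvent with surfactant.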

morningglory = experiment: Test B pre/postemergence morningglory; type: in vivo, Ipomoea hederacea
Outline: as §1

wheat = experiment: Test B pre/postemergence wheat; type: in vivo, Triticum aestivum
Outline: as §1

smallflower flatsedge = experiment: Test B flood test smallflower flatsedge; type: in vivo, Cyperus difformis
Outline: (§2)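 Flood test on plants grown to the 2-leaf stage; treated plants kept in greenhouse twelve to sixteen days, then visually rated against controls on a 0 (no effect) to 10 (complete control) scale.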

duck salad = experiment: Test B flood test duck salad; type: in vivo, Heteranthera limosa
Outline: as §2

giant foxtail = experiment: Test B pre/postemergence giant foxtail; type: in vivo, Setaria faberii
Outline: as §1

rape = experiment: Test B pre/postemergence rape; type: in vivo, Brassica napus
Outline: as §1

purple nutsedge = experiment: Test B pre/postemergence purple nutsedge; type: in vivo, Cyperus rotundus
Outline: as §1

bedstraw = experiment: Test B pre/postemergence bedstraw; type: in vivo, Galium aparine; details: for Bedstraw plant response rating: Rate 62 g/ha
Outline: as §1

surinam grass = experiment: Test B pre/postemergence surinam grass; type: in vivo, Brachiaria decumbens
Outline: as §1

crabgrass = experiment: Test B pre/postemergence crabgrass; type: in vivo, Digitaria sanguinalis
Outline: as §1

soybean = experiment: Test B pre/postemergence soybean; type: in vivo, Glycine max; details: for Plant response rating, Soybean: Postemergence
Outline: as §1

blackgrass = experiment: Test B pre/postemergence blackgrass; type: in vivo, Alopecurus myosuroides
Outline: as §1

rice = experiment: Test B flood test rice; type: in vivo, Oryza sativa
Outline: as §2

velvetleaf = experiment: Test B pre/postemergence velvetleaf; type: in vivo, Abutilon theophrasti
Outline: as §1

wild oat = experiment: Test B pre/postemergence wild oat; type: in vivo, Avena fatua
Outline: as §1

[1] = Postemergence, Rate 125 g/ha, scale 0 to 10, 0 is no effect, 10 is complete control
[2] = Preemergence, Rate 62 g/ha, scale of 0 to 10 where 0 is no effect and 10 is complete control
[3] = Preemergence, Rate 250 g/ha, scale of 0 to 10 where 0 is no effect and 10 is complete control
[4] = Preemergence, Rate 500 g/ha, scale of 0 to 10 where 0 is no effect and 10 is complete control
[5] = Rate 62 g/ha, Postemergence, scale 0 to 10 (0 no effect, 10 complete control)
[6] = Rate 250 g/ha, Postemergence, scale of 0 to 10 where 0 is no effect and 10 is complete control
[7] = Rate 500 g/ha, Postemergence, scale 0 to 10, 0 no effect, 10 complete control
[8] = Rate 62 g/ha, headed Pre-emergence (flood test species), scale 0 to 10 (0 no effect, 10 complete control)
[9] = Rate 125 g/ha, Pre-emergence, flood test species, scale 0 to 10 where 0 is no effect and 10 is complete control
[10] = Rate 250 g/ha, Pre-emergence, flood-test species, scale 0 to 10, 0 is no effect, 10 is complete control
[11] = Rate 500 g/ha, Pre-emergence, flood test species, scale 0 to 10 (0 no effect, 10 complete control)

CC(C)N(C(=O)n1oc(=O)n(C2CC3CCC2C3)c1=O)c1ccccc1 (stereo not shown) [Compound 328]
2: Plant response rating, Crabgrass (crabgrass; [7]) | Plant response rating, Soybean (soybean; Rate 125 g/ha, scale 0 to 10, 0 is no effect, 10 is complete control)
10: Plant response rating, Morningglory (morningglory; [6]) | Plant response rating, Morningglory (morningglory; [7])
8: Plant response rating, Morningglory (morningglory; [1]) | Giant foxtail plant response rating (giant foxtail; [3])
3: Crabgrass plant response rating (crabgrass; [3])
9: Giant foxtail plant response rating (giant foxtail; [4])
4: Morningglory plant response rating (morningglory; [4]) | Plant response rating, Bedstraw (bedstraw; [6]) | Blackgrass plant response rating (blackgrass; [3])
6: Plant response rating, Soybean (soybean; Rate 500 g/ha, scale 0 to 10, 0 no effect, 10 complete control)
0: Plant response rating, Corn (corn; [1]) | Corn plant response rating (corn; [2]) | Corn plant response rating (0 to 10 scale) (corn; Preemergence, Rate 125 g/ha) | Corn plant response rating (corn; [3]) | Corn plant response rating (corn; [4]) | Corn plant response rating (corn; [5]) | Plant response rating, Corn (corn; [6]) | Plant response rating, Corn (corn; [7]) | Morningglory plant response rating (morningglory; [2]) | Morningglory plant response rating (0 to 10 scale) (morningglory; Preemergence, Rate 125 g/ha) | Morningglory plant response rating (morningglory; [3]) | Plant response rating, Wheat (wheat; [1]) | Wheat plant response rating (wheat; [2]) | Wheat plant response rating (0 to 10 scale) (wheat; Preemergence, Rate 125 g/ha) | Wheat plant response rating (wheat; [3]) | Wheat plant response rating (wheat; [4]) | Wheat plant response rating (wheat; [5]) | Plant response rating, Wheat (wheat; [6]) | Plant response rating, Wheat (wheat; [7]) | S. Flatsedge plant response rating (smallflower flatsedge; [8]) | S. Flatsedge plant response rating (smallflower flatsedge; [9]) | S. Flatsedge plant response rating (smallflower flatsedge; [10]) | S. Flatsedge plant response rating (smallflower flatsedge; [11]) | Ducksalad plant response rating (duck salad; [8]) | Ducksalad plant response rating (duck salad; [9]) | Ducksalad plant response rating (duck salad; [10]) | Ducksalad plant response rating (duck salad; [11]) | Plant response rating, Giant foxtail (giant foxtail; [1]) | Giant foxtail plant response rating (giant foxtail; [2]) | Giant foxtail plant response rating (giant foxtail; [5]) | Plant response rating, Giant foxtail (giant foxtail; [6]) | Plant response rating, Rape (rape; [1]) | Rape plant response rating (rape; [2]) | Rape plant response rating (0 to 10 scale) (rape; Preemergence, Rate 125 g/ha) | Rape plant response rating (rape; [3]) | Rape plant response rating (rape; [4]) | Rape plant response rating (rape; [5]) | Plant response rating, Rape (rape; [6]) | Plant response rating, Rape (rape; [7]) | Plant response rating, Nutsedge (purple nutsedge; [1]) | Nutsedge plant response rating (purple nutsedge; [2]) | Nutsedge plant response rating (0 to 10 scale) (purple nutsedge; Preemergence, Rate 125 g/ha) | Nutsedge plant response rating (purple nutsedge; [3]) | Nutsedge plant response rating (purple nutsedge; [4]) | Nutsedge plant response rating (purple nutsedge; [5]) | Plant response rating, Nutsedge (purple nutsedge; [6]) | Plant response rating, Nutsedge (purple nutsedge; [7]) | Bedstraw plant response rating (bedstraw; Preemergence, scale of 0 to 10 where 0 is no effect and 10 is complete control) | Bedstraw plant response rating (0 to 10 scale) (bedstraw; Preemergence, Rate 125 g/ha) | Bedstraw plant response rating (bedstraw; Postemergence, scale 0 to 10 (0 no effect, 10 complete control)) | Plant response rating, B. signalgrass (surinam grass; [1]) | B. signalgrass plant response rating (surinam grass; [2]) | B. signalgrass plant response rating (0 to 10 scale, 0 is no effect, 10 is complete control) (surinam grass; Preemergence, Rate 125 g/ha) | B. signalgrass plant response rating (surinam grass; [3]) | B. signalgrass plant response rating (surinam grass; [5]) | Plant response rating, B. signalgrass (surinam grass; [6]) | Plant response rating, B. signalgrass (surinam grass; [7]) | Plant response rating, Crabgrass (crabgrass; [1]) | Crabgrass plant response rating (crabgrass; [2]) | Crabgrass plant response rating (0 to 10 scale) (crabgrass; Preemergence, Rate 125 g/ha) | Crabgrass plant response rating (crabgrass; [5]) | Plant response rating, Crabgrass (crabgrass; [6]) | Soybean plant response rating (soybean; [2]) | Soybean plant response rating (0 to 10 scale) (soybean; Preemergence, Rate 125 g/ha) | Soybean plant response rating (soybean; [3]) | Soybean plant response rating (soybean; [4]) | Blackgrass plant response rating (blackgrass; [2]) | Blackgrass plant response rating (0 to 10 scale) (blackgrass; Preemergence, Rate 125 g/ha) | Blackgrass plant response rating (blackgrass; [5]) | Rice plant response rating (rice; [8]) | Rice plant response rating (rice; [9]) | Rice plant response rating (rice; [10]) | Plant response rating, Velvetleaf (velvetleaf; [1]) | Velvetleaf plant response rating (velvetleaf; [2]) | Velvetleaf plant response rating (0 to 10 scale) (velvetleaf; Preemergence, Rate 125 g/ha) | Velvetleaf plant response rating (velvetleaf; [3]) | Velvetleaf plant response rating (velvetleaf; [4]) | Velvetleaf plant response rating (velvetleaf; [5]) | Plant response rating, Velvetleaf (velvetleaf; [6]) | Plant response rating, Velvetleaf (velvetleaf; [7]) | Plant response rating, Wild oats (wild oat; [1]) | Wild oats plant response rating (wild oat; [2]) | Wild oats plant response rating (0 to 10 scale) (wild oat; Preemergence, Rate 125 g/ha) | Wild oats plant response rating (wild oat; [3]) | Wild oats plant response rating (wild oat; [5]) | Plant response rating, Wild oats (wild oat; [6]) | Plant response rating, Wild oats (wild oat; [7])
5: Giant foxtail plant response rating (0 to 10 scale) (giant foxtail; Preemergence, Rate 125 g/ha) | B. signalgrass plant response rating (surinam grass; [4]) | Crabgrass plant response rating (crabgrass; [4]) | Plant response rating, Soybean (soybean; Rate 250 g/ha, scale of 0 to 10 where 0 is no effect and 10 is complete control) | Plant response rating, Blackgrass (blackgrass; [6]) | Plant response rating, Blackgrass (blackgrass; [7])
7: Morningglory plant response rating (morningglory; [5]) | Blackgrass plant response rating (blackgrass; [4]) | Rice plant response rating (rice; [11])
1: Plant response rating, Giant foxtail (giant foxtail; [7]) | Plant response rating, Bedstraw (bedstraw; [1]) | Plant response rating, Blackgrass (blackgrass; [1]) | Wild oats plant response rating (wild oat; [4])
